Publication PMC13252604, “First Generation Proteolysis Targeting Chimeras (PROTACs) for the Treatment of Progeria” (Advanced Science, 2026)

System: overall protein abundance
Assay: Global proteomic analysis
Type: cell-based
Conditions: 5 µM compound vs vehicle, three independent samples each
Text: (A) Input IP .LM123L T-!=> V,!=>
MW Veh Cpd 2 Cpd 2 Veh !!!!!"#$$#B -45665 T4--8 -4;?,;
Progerin !!!!!E#)*+,- ,V4:-Ise::::: :etpoooomX,?4?V:enst9mmqo,848; !?#$B?CDEFCBG+I-+G.BLG+ […]
!!!!!*+,- 84;66L<-,VI9e::::::esnnsmqmXV4-;VL<-,?:estm9XpoX?4T-?L<-,8 FFFFF0BNNB$ :em9Xn […]
IgG heavy chain Iqep:m:p ne:qmppo:m :esmpqtmpn FFFFFSB#T89:I9em:m […]
50- Iqe9mt:: :eoX9ppnnm :eoqpq9s9p X9YF8=F>.-B2?E+FE??+E?@BBCA
FFFFF0BNNB$ rrrFNBF:eqoqs
Cpd 2 Veh FFFFFSB#T89:rrr […]
Vehicle .LM123L T-!=>(%C" V,!=> […]
50- !!!!!C#' -4TT8VLamin C -4T:T; (%$$-4-:?5T '()*+
!!!!!E#)*+,- ,V4:-β-Actin ,?4?V ,848; D(%
37- !!!!!*+,- 84;66L<-,V V4-;VL<-,? ?4T-?L<-,8 ,-)*+ […]
Abundance Ratio (log2): Ve h / Cpd 2
Supporting Figure S2. Ternary complex formation, progerin engagement and global selectivity of compound 2. (A) Progeroid […]/G609G fibroblasts treated with vehicle (0.1% DMSO) or compound 2 (5 µM) were subjected to immunoprecipitation with an anti-CRBN antibody and then immunoblotted with an anti-progerin antibody. Bar graph represents mean±sem of 2 independent experiments. (B) Representative progerin immunoblotting of the soluble fraction of LmnaG609G/G609G cell homogenates treated with […]
indicated temperature. (C) Thermal denaturation curves of progerin in the presence of vehicle (black) or compound 2 at 10 µM (red, DTm=0.7±0.1 °C) or 25 µM (blue, […]
of compound 2 (IC50=7±1 µM). […]

CC1(C)Oc2cc3oc(=O)ccc3cc2C[C@@H]1OC(=O)CCCCCNc1cccc2c1C(=O)N(C1CCC(=O)NC1=O)C2=O (stereo partly shown) [compound 2]
alterations in overall protein abundance (global proteomics): did not identify significant alterations in overall protein abundance
